One series deals with MDA MB231 KO cells. Kind of series: Mitochondrial respiration (OCR), Seahorse, MDA MB231 KO cells (MPC2 deleted). It counts as cell-based. Conditions: MPC activity genetically deleted (MPC2 KO). As for the experimental part:
(§1) To determine whether MIN-102 has any effect on pyruvate-mediated mitochondrial respiration, the extracellular flux analyzer Seahorse was used as described in Compan et al. Seahorse experiments were performed in the following cell lines: HeLa (Cervix cancer cells), A549 (lung cancer cells), wild type MDA MB 231, and MDA MB 231 in which MPC2 has been deleted, leading to inactivation of the MPC (MDA MB231 KO). MDA MB231 cells are epithelial breast cancer cells. Cells were incubated with increasing concentrations of the compounds for one hour at 37° C. before oxygen consumption rate (OCR) measurements. The Seahorse analyzer allowed to measure basal and maximal respiration measured upon depolarization with 1 μM CCCP.
(§2) The KO cells have been deleted of the MPC2 gene and therefore they display no MPC activity. […] OCR values are expressed as ratios of OCR in the presence of different concentrations of the tested compound over the OCR in PBS alone.

Series [1] has as its system MCD diet fed C57BL6/J mice. As to the kind of experiment: Methionine Choline Deficient (MCD) diet NASH mouse model. It counts as in vivo, C57BL6/J male mice. As to conditions: 62.5 mg/kg BID orally. The method, then: The preventive effects of MIN-102 was evaluated in a 7-week Methionine Choline Deficient (MCD) diet NASH mouse model (Verdelho Machado et al.). After the acclimation period, C57BL6/J male mice (n=20) were weighed and randomized into 2 homogenous treatment groups based on body weight (n=10/group), put on a MCD diet, and treated BID orally with vehicle or MIN-102 for 7 weeks.
MIN-102 was dosed 62.5 mg/kg BID orally by gavage.
After the acclimation period, C57BL6/J male mice (n=20) were weighed and randomized into 2 homogenous treatment groups based on body weight (n=10/group), put on a MCD diet, and treated BID orally with a vehicle or MIN-102 (125 mg/Kg/day) for 7 weeks. Body weight was measured 3 times/week until the end of the experimental phase.
At 7 weeks of diet/treatment, mice were weighed and treated at ˜08:00 am in the morning, then bled (maximal volume/EDTA) at ˜1:00 pm. Plasma was then immediately isolated and stored at −80° C. prior to assay plasma ALT and AST. The plasma volume left over was stored at −80° C. for eventual additional analysis.
After blood collection, the mice were sacrificed by cervical dislocation under isoflurane anesthesia and exsanguinated with sterile saline.
Histology analysis was performed (oil red O, H&E and Sirius Red staining) for NAFLD scoring system (NAS) for liver steatosis, inflammation, fibrosis and hepatocyte ballooning.

For series [2] the following is noted: humans, compared with pioglitazone; from PCT/IB2017/057587; cited from earlier work.
Series [3] has as its system wild type MDA MB 231 cells. Kind of series: Mitochondrial respiration (OCR), Seahorse, wild type MDA MB231 cells. As to conditions: cells with active MPC. It counts as cell-based. The method, then: as §1, §2
The next series has as its system adiponectin. As to the kind of experiment: Plasma adiponectin levels in Sprague Dawley rats (ELISA). The class given is in vivo. As to conditions: 54 mg/Kg/day for 7 days, plasma 1 h after last administration, vs vehicle. As for the experimental part:
Evaluation of the effect of Compounds of the Disclosure on adiponectin was performed in Sprague Dawley rats. The rats were treated for 7 days with repeated doses of MIN-102 at 54 mg/Kg/day. Plasma were obtained at 1 h after the last M1N-102 administration. Adiponectin levels were measured by ELISA. Results were represented as mean+standard error of the mean of n=8. Data were analyzed by Kruskal-Wallis followed by the Dunn post-hoc test versus the vehicle group (****,p<0.0001).

The target of series [4] is mitochondrial pyruvate carrier (MPC) (Homo sapiens (Human), UniProt O95563+Q9Y5U8). Kind of series: MPC inhibitory activity, BRET assay in HEK cells. The class given is cell-based. The method, then:
The MPC is a heterodimer composed of two subunits, MPC1 and MPC2. MPC1 and MPC2 interact to form an active carrier. In the assay, MPC2 was fused to Rluc8 (Donor) and MPC1 to Venus (Acceptor). These chimeric proteins were stably expressed in HEK cells. BRET activity was measured following addition of coelenterazine in the culture medium. Coelenterazine enters into cells and in contact with luciferase Rluc8 emits light, which activates the emission of fluorescence by the Acceptor, provided the distance between the Donor and Acceptor is <[…]. If the distance between Donor and Acceptor is >[…], no BRET activity is measured. The level of BRET activity reflects a change in the conformation of the MPC: it is high when the carrier is in a closed conformation, low when the carrier is at rest and intermediary when it transports pyruvate. In this case, the BRET activity is the mean value between the BRET value when the carrier is at rest (Maximal distance between Donor and Acceptor) and the BRET value when it is closed (Shortest distance between Donor and Acceptor)

Structures are written as SMILES.

Chain of mitochondrial pyruvate carrier (MPC) (Q9Y5U8 whole entry, the tested form may be a part): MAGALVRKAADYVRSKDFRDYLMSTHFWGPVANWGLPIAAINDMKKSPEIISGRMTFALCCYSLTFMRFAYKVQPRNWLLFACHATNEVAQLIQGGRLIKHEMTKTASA
Chain of mitochondrial pyruvate carrier (MPC) (O95563 whole entry, the tested form may be a part): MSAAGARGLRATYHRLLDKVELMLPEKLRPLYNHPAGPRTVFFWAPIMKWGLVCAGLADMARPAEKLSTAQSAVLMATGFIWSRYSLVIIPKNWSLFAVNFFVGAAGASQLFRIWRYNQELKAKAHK

For the compound `CC(O)c1ccc(CCOc2ccc(CC3SC(=O)NC3=O)cc2)nc1` (racemic) [MIN-102, 5-[[4-[2-[5-(1-hydroxyethyl)pyridin-2-yl]ethoxy]phenyl]methyl]-1,3-thiazolidine-2,4-dione], in the series on MDA MB231 KO cells, the “effect on oxygen consumption” value is “does not inhibit oxygen consumption”. Also, the hepatic cholesterol levels result in series [1] (7 weeks) is recorded as “did not show a change”. Besides, in series [1] (7 weeks, vs vehicle), the “oil red o staining %” value was “extremely low”, the “reduction in hepatic triglycerides levels” value came to 92%, the “reduction of plasma ALT level” value stood at 78% and the “reduction of plasma AST level” value worked out at 55%. In addition, in series [1] (7 weeks, histology), the “Mean NAS group score” value is on record as 0.44±01 and the liver inflammation entry was “total disappearance of inflammation”. Moreover, the steatosis score entry in series [1] (7 weeks, histology, vs vehicle) is on record as “blunted steatosis score”. Besides, in series [1] (day 14 to day 50, vs vehicle), the body weight loss result is listed as “less severe decline in body weight loss”. Besides, the “variability in exposure (PK variability)” value in series [2] was “less variability in exposure than pioglitazone”. Besides, in series [3], the “effect on oxygen consumption” value was “inhibits oxygen consumption in a MPC dependent manner”. For the same compound, the “adiponectin levels in plasma” value in the series on adiponectin is “significantly increased”.

`CN(CCOc1ccc(CC2SC(=O)NC2=O)cc1)c1ccccn1` (centres unmarked) [Rosiglitazone] gave an IC50 in series [4] of 2 µM.

The values are drawn from US20250064791A1, “5-[[4-[2-[5-(1-HYDROXYETHYL)PYRIDIN-2-YL]ETHOXY]PHENYL]METHYL]-1,3-THIAZOLIDINE-2,4-DIONE AND ITS SALTS FOR USE IN THE TREATMENT OF MITOCHONDRIAL DISEASES” (MINORYX THERAPEUTICS S.L., priority 2018, published 2025).
